The test concerns BT-474 human mammary tumor cells. Briefly: Cytotoxicity on BT-474 cells, trypan blue. It is filed as cell-based. To be noted: BT-474, trypan blue, 48 h. The method, then:
The cellular viability tests were also carried out on BT-474 human mammary tumor cells (characterized as being positive triples HER2+, ER+, PR+). The BT-474 cells are in a cell culture medium identical to the preceding example and are seeded in 24-well plates at 70 000 cells per well, for determination of cellular viability using trypan blue, or in 96-well plates at 13 000 cells per well for determination of cellular viability using the MTT or LDH assay. After 96 hours (h) of culture in normal conditions, i.e. in an incubator at a temperature of 37° C. at 5% CO2, the BT-474 cells are treated for 48 h with DX101, DX107, and DX113 at 100 nM, 1 μM, 2.5 μM and 10 μM. A control is also carried out using the protocol described above but without treatment with the molecules DX101, DX107, DX113, DX117, DX119, DX121 or DX131.
After trypsin digestion for 10 minutes at 37° C., cell survival was quantified, also by a trypan blue assay with automatic counting with the Biorad TC20 equipment (TC20™ Automated Cell Counter). The trypan blue assay is based on the cell membrane integrity, which is broken in the dead cells. Trypan blue stains the dead cells blue. The Biorad TC20 cell counter counts the proportion of blue cells and non-blue cells, relative to the cell percentages. The percentage viability is then determined in each well relative to the untreated cells and the IC50 is determined as explained in the preceding example. The percentage viability of the BT-474 cells was determined using the MTT and LDH assay, carried out as described in the preceding example.

Each structure is given as a SMILES string.

Turning to `CCC(=O)O[C@H]1CC[C@]2(C)[C@H]3CC[C@]4(C)[C@@H]([C@H](C)CCCC(C)C)CC[C@H]4[C@@H]3C[C@@H](NCCc3c[nH]cn3)[C@@]2(O)C1` [DX107, 5α-hydroxy-6β-[2-(1H-imidazol-4-yl)ethylamino]cholestan-3β-yl propionate], the “Mean LogIC50 (±SEM)” value (log of IC50 in μM) amounted to 0.66 ± 0.04. For the same molecule, for the setting “Homo sapiens”, the IC50 (commonly the midpoint of a concentration-inhibition curve) came to 4.58 µM.

(Values after patent publication US20240002429A1, “PRODRUG OF 5a-HYDROXY-6ß-[2-(1H-IMIDAZOL-4-YL)ETHYLAMINO]CHOLESTAN-3ß-OL AND PHARMACEUTICAL COMPOSITIONS COMPRISING SAME FOR USE IN THE TREATMENT OF CANCER” (priority 2020, published 2024).)
